According to patent publication US5736533A, “Bacterial inhibition with an oligosaccharide compound” (Neose Technologies, Inc., priority 1995, dated 1998):
Several values for one entry are separate records, joined by “and”; a condition that tells them apart may be missing. Equal entries are not always repeated. Where two headings read alike, the source gives them in different places.

Assays:
S. pneumoniae = experiment: inhibition of adherence of S. pneumoniae to respiratory epithelial cells; assay type: cell-based; conditions: Streptococcus pneumoniae
[1] = system: H. influenzae (strain 46519); experiment: inhibition of adherence of H. influenzae (strain 46519) to epithelial cells; assay type: cell-based; conditions: Haemophilus influenzae, Epithelial cell, read-out: IC50 [mean (SD)]
Description: (§1) A method similar to that of Rostand, K. and Esko, (1993) J. Biol. Chem. 268 pp 24053-3, which studied the binding of radiolabelled P. aeruginosa to CHO cells was used to test for the binding inhibition of oligosaccharide compounds. For the studies described herein, S. pneumoniae (strains R-6, P70, and other clinical respiratory isolates) were labelled by culture in lysine-deficient tryptic soy broth containing ^3 H-lysine. The tryptic soy broth was made deficient in lysine by pre-treating it with lysine decarboxylase from E. coli. The bacteria were cultured for 4-5 hours, at which point the culture was in exponential growth. The bacteria were harvested and washed in Leibovitz L-15 Medium supplemented with 0.2% low-endotoxin bovine serum albumin. The bacteria were diluted to approximately 3×10^8 /mL, and then mixed 1:1 with either L-15-BSA or with various compounds to be tested. The bacterial mixtures were incubated at room temperature, with gentle agitation on an orbital shaker. After 10-15 min, samples of the bacterial mixtures were transferred to the surface of a confluent monolayer of cultured epithelial cells in a 96-well polystyrene plate. The cells most commonly used were the Wong-Kilbourne derivative of Chang conjunctiva. The human nasopharyngeal cell line Detroit 562, and the human lung cell line A549 were also used. The bacteria were incubated with the cells for 30 min with gentle agitation, at room temperature. The unbound bacteria were washed away with PBS containing 0.2% bovine serum albumin. Scintillant solution was added to the wells, and the plate was put in a microplate scintillation counter for quantitation of bound bacteria.
(§2) Adhesion of H. influenzae to epithelial cells was performed with the same protocol with the following modifications: The bacteria were cultured overnight in lysine-deficient Haemophilus test media. The bacteria were incubated with the cells at a concentration near 10^7 /mL for 60 min.
(§3) Using the testing protocol described in Example 2, four strains of bacteria were tested for binding inhibition by different oligosaccharide compounds.

[2] = system: H. influenzae (strain 39689); experiment: inhibition of adherence of H. influenzae (strain 39689) to epithelial cells; assay type: cell-based; conditions: Haemophilus influenzae, Epithelial cell, read-out: IC50 [mean (SD)]
Description: as §1, §2, §3

[3] = system: Burkholderia (Pseudomonas) cepacia; experiment: inhibition of adherence of Burkholderia (Pseudomonas) cepacia to respiratory epithelial cells; assay type: cell-based
Description: as §1, §3

Escherichia coli C600 = conditions: Rosenstein et al (1992); cited from earlier work
S. pneumoniae strain AII [4] = experiment: colonization of rabbit lungs with S. pneumoniae in the presence of an adherence-inhibitory oligosaccharide; assay type: in vivo, New Zealand white rabbits; conditions: 100 μM
Description: Rabbits S. pneumoniae strain AII were mixed with oligosacchardies and administered to New Zealand white rabbits by tracheal instillation, and lung lavage colonies were counted at the indicated time by the method described in Saukkonen, et al., 1991, J. Exp. Med. 173:1143-9.

S. pneumoniae strain AII [5] = experiment: treatment of rabbits pre-colonized with S. pneumoniae with adherence-reversing oligosaccharide; assay type: in vivo, New Zealand white rabbits
Description: S. pneumonaie strain AII were administered to New Zealand white rabbits by tracheal instillation. All rabbits were sick at 24 h, with indications of pneumonia. After 24 h oligosaccharide (LNnT) or control (saline) was administered intratracheally. After an additional 24 h lung lavage colonies were counted as described in Example 3.

[6] = system: Pseudomonas aeruginosa M35; conditions: Rosenstein et al (1992); isolate from cystic fibrosis patients; cited from earlier work
[7] = system: immunoglobulin E-binding protein; conditions: Feizi et al Biochemistry 1994; cited from earlier work
Pseudomonas aeruginosa = conditions: Ramphal et al (1991); cited from earlier work
Escherichia coli = conditions: Ginsburg et al U.S. Pat. No. 5,225,330; cited from earlier work
Streptococcus pneumoniae = conditions: Andersson et al J. Exp. Med. (1983); cited from earlier work
Mycoplasma pneumoniae = conditions: Ginsburg et al U.S. Pat. No. 5,225,330, Table I; cited from earlier work
[8] = A549, read-out: IC50 [mean (SD)], Monovalent, A549 human lung carcinoma, activated with IL1
[9] = Epithelial cell, read-out: IC50 [mean (SD)], Monovalent, Chang human conjunctival carcinoma
[10] = HUVEC, read-out: IC50 [mean (SD)], Monovalent, HUVEC activated with TNFα or thrombin
[11] = Burkholderia, Calu 3 cells, read-out: IC50 [mean (SD)]
[12] = Calu-3, read-out: IC50 [mean (SD)], Monovalent, CaLu-3 human lung carcinoma
[13] = Epithelial cell, read-out: IC50 [mean (SD)], Monovalent, Det-562 human nasopharyngeal carcinoma
[14] = experiment 1, inoculum 5 × 10^5 bacteria, intratracheal, 4 day lavage
[15] = experiment 2, inoculum 5 × 10^5 bacteria, intratracheal, 4 day lavage
[16] = experiment 3, inoculum 5 × 10^7 bacteria, 24 h lavage

For `CC(=O)N[C@H]1[C@H](O[C@H]2[C@@H](O)[C@@H](CO)O[C@@H](O[C@H]3[C@H](O)[C@@H](O)C(O)O[C@@H]3CO)[C@@H]2O)O[C@H](CO)[C@H](O)[C@@H]1O` (stereo partly drawn) [Ga1NAc β1-3 Ga1β1-4 Glc, GalNAcβ1-3-Galβ1-4-Glc], the IC50 (S. pneumoniae; [8]) was 85 µM, the IC50 (S. pneumoniae; [9]) was > 6000 µM and the IC50 (S. pneumoniae; [10]) was 70 µM. For the same molecule, the IC50 [1] was 4.2 mM and the IC50 [2] was 10.6 mM.
`CC(=O)N[C@H]1[C@H](O[C@H]2[C@@H](O)[C@@H](CO)O[C@@H](O[C@H]3[C@H](O)[C@@H](O)C(O)O[C@@H]3CO)[C@@H]2O)O[C@H](CO)[C@@H](O[C@@H]2O[C@H](CO)[C@H](O)[C@H](O[C@@H]3O[C@H](CO)[C@H](O)[C@H](O)[C@H]3NC(C)=O)[C@H]2O)[C@@H]1O` (stereo partly drawn) [Ga1NAc β1-3 LNnT, GalNAcβ1-3-Galβ1-4-GlcNAcβ1-3-Galβ1-4-Glc] gave an IC50 (S. pneumoniae; [8]) of 80 µM, an IC50 (S. pneumoniae; [10]) of 75 µM and an IC50 [1] of 7.8 mM. For the same molecule, the IC50 [2] was > 10 mM.
With `CC(=O)N[C@H]1[C@H](O[C@H]2[C@@H](O)[C@@H](CO)O[C@@H](O[C@H]3[C@H](O)[C@@H](O)C(O)O[C@@H]3CO)[C@@H]2O)O[C@H](CO)[C@@H](O[C@@H]2O[C@H](CO)[C@H](O)[C@H](O)[C@H]2O)[C@@H]1O` (stereo partly drawn) [LNnT, Galβ1-4-GlcNAcβ1-3-Galβ1-4-Glc] the IC50 [3, 11] was 5.6 mM, the IC50 (S. pneumoniae; [8]) was 95 µM and the IC50 (S. pneumoniae; [12]) was > 16000 µM. The IC50 (S. pneumoniae; [9]) was 8000 µM, the IC50 (S. pneumoniae; [13]) was 7000 µM and the IC50 (S. pneumoniae; [10]) was 52 µM. The binding activity (Escherichia coli C600) was “high binding activity”, the “CFU (lung lavage)” value (S. pneumoniae strain AII [4]; experiment 1, inoculum 5 × 10^5 bacteria, intratracheal, 24 h lavage, 2 rabbits/group, one value per rabbit) was 8.7 × 10^2 CFU (colonies/ml lavage fluid) and 4.7 × 10^3 CFU (colonies/ml lavage fluid) and the “CFU (lung lavage)” value (S. pneumoniae strain AII [4]; [14]) was < 10 CFU (colonies/ml lavage fluid). The “CFU (lung lavage)” value (S. pneumoniae strain AII [4]; [15]) was 0 CFU (colonies/ml lavage fluid), the “CFU (lung lavage)” value (S. pneumoniae strain AII [4]; [16]) was 0 CFU (colonies/ml lavage fluid) and the “CFU (lung lavage)” value (S. pneumoniae strain AII [4]; experiment 4, inoculum 10^5 bacteria, intratracheal, 24 h lavage) was 1.1 × 10^3 CFU (colonies/ml lavage fluid) and 1.4 × 10^3 CFU (colonies/ml lavage fluid). The “condition of treated rabbits” value (S. pneumoniae strain AII [5]; at 48 h) was “healthy”, the “CFU (lung lavage)” value (S. pneumoniae strain AII [5]; inoculum 10^5 bacteria, 100 μM intratracheal, lavage 24 h after oligosaccharide treatment and 48 h after bacterial instillation) was 0 CFU and the IC50 [1] was > 14 mM. The binding activity [6] was “high binding activity” and the IC50 [2] was > 14 mM.
`CC(=O)N[C@H]1[C@H](O[C@H]2[C@@H](O)[C@@H](CO)O[C@@H](O[C@H]3[C@H](O)[C@@H](O)C(O)O[C@@H]3CO)[C@@H]2O)O[C@H](CO)[C@@H](O[C@@H]2O[C@H](CO[C@]3(C(=O)O)C[C@H](O)[C@@H](NC(C)=O)[C@H]([C@H](O)[C@H](O)CO)O3)[C@H](O)[C@H](O)[C@H]2O)[C@@H]1O` (stereo partly drawn) [LSTc, NeuAcα2-6-Galβ1-4-GlcNAcβ1-3-Galβ1-4-Glc] showed an IC50 [3, 11] of 1 mM, an IC50 ([3]; first table (P. cepacia), CaLu-3 lung carcinoma, read-out: IC50) of 1 mM and an IC50 (S. pneumoniae; A549, first table, A549 lung carcinoma, activated with IL1) of 100 µM. It also gave an IC50 (S. pneumoniae; [8]) of 69 µM, an IC50 (S. pneumoniae; Calu-3, first table, CaLu-3 lung carcinoma) of 4400 µM and an IC50 (S. pneumoniae; [12]) of 4400 µM. The IC50 (S. pneumoniae; Epithelial cell, first table, 1° lung: rat tracheal primary epithelium) was 400 µM, the IC50 (S. pneumoniae; Epithelial cell, first table, CHANG cells) was 1500 µM and the IC50 (S. pneumoniae; Epithelial cell, first table, Det-562 nasopharyngeal carcinoma) was 5400 µM. It also gave an IC50 (S. pneumoniae; Epithelial cell, read-out: IC50 [mean (SD)], Monovalent, 1° lung: rat trachea epithelial monolayer (primary)) of 250 µM, an IC50 (S. pneumoniae; [9]) of 1400 µM and an IC50 (S. pneumoniae; [13]) of 4000 µM. The IC50 (S. pneumoniae; FaDu, first table, FaDu nasopharyngeal carcinoma) was 4000 µM, the IC50 (S. pneumoniae; FaDu, read-out: IC50 [mean (SD)], Monovalent, FaDu human nasopharyngeal carcinoma) was 4500 µM and the IC50 (S. pneumoniae; HUVEC, first table, HUVEC activated with TNFα or thrombin) was 100 µM. For the same molecule, the IC50 (S. pneumoniae; [10]) was 69 µM, the binding activity (Escherichia coli C600) was “no activity” and the “CFU (lung lavage)” value (S. pneumoniae strain AII [4]; [14]) was < 10 CFU (colonies/ml lavage fluid). For the same molecule, the “CFU (lung lavage)” value (S. pneumoniae strain AII [4]; [15]) was 0 CFU (colonies/ml lavage fluid), the “CFU (lung lavage)” value (S. pneumoniae strain AII [4]; [16]) was 0 CFU (colonies/ml lavage fluid) and the “binding by immunoglobulin E-binding protein” value [7] was “not bound or is only negligibly bound”. For the same molecule, the binding activity [6] was “no activity”, the IC50 [2] was > 10 mM and the “activity in the direct adhesion assay” value (Pseudomonas aeruginosa) was “no activity”.
With `CC(=O)N[C@H]1[C@H](O[C@H]2[C@@H](O)[C@@H](CO)O[C@@H](O[C@H]3[C@H](O)[C@@H](O)C(O)O[C@@H]3CO)[C@@H]2O)O[C@H](CO)[C@@H](O[C@@H]2O[C@H](CO)[C@H](O)[C@H](O[C@]3(C(=O)O)C[C@H](O)[C@@H](NC(C)=O)[C@H]([C@H](O)[C@H](O)CO)O3)[C@H]2O)[C@@H]1O` (stereo partly drawn) [LSTd, NeuAcα2-3-Galβ1-4-GlcNAcβ1-3-Galβ1-4-Glc] the IC50 (S. pneumoniae; [8]) was 95 µM, the IC50 (S. pneumoniae; [9]) was 600 µM and the IC50 (S. pneumoniae; [10]) was 90 µM.
For `CC(=O)N[C@H]1[C@H](O[C@H]2[C@@H](O)[C@@H](CO)O[C@@H](O[C@H]3[C@H](O)[C@@H](O)C(O)O[C@@H]3CO)[C@@H]2O)O[C@H](CO)[C@@H](O)[C@@H]1O[C@@H]1O[C@H](CO)[C@H](O)[C@H](O[C@]2(C(=O)O)C[C@H](O)[C@@H](NC(C)=O)[C@H]([C@H](O)[C@H](O)CO)O2)[C@H]1O` (stereo partly drawn) [NeuAcα2-3-Galβ1-3-GlcNAcβ1-3-Galβ1-4-Glc, reference compound], the “binding by immunoglobulin E-binding protein” value [7] is listed as “strongly bound”.
In the case of N-glycolylsialoparagloboside, the inhibition (Escherichia coli) is listed as “inhibition”.
For “NeuAcα2-3Galβ1-4-GlcNAcβ1-3-Galβ1-4-Glc--Cer [compound 3]”, the binding inhibition (Streptococcus pneumoniae) is given as “no effect”.
In the case of sialylparagoboside, the binding inhibition (Mycoplasma pneumoniae) is listed as “no activity”.
